Test results taken from ChEMBL document CHEMBL3217445, “Optimising pharmacokinetics of glucokinase activators with matched triplicate design sets the discovery of AZD3651 and AZD9485” (Medchemcomm, 2013).
Converted amounts (≈) assume the structure as drawn. The source made the active and inactive calls. The rule behind the calls is not given here.

Legend:
Hexokinase-4 = molecular target: T1, Hexokinase-4 (Homo sapiens, UniProt P35557); assay: Activation of glucokinase (unknown origin)
T1 sequence (P35557 whole entry): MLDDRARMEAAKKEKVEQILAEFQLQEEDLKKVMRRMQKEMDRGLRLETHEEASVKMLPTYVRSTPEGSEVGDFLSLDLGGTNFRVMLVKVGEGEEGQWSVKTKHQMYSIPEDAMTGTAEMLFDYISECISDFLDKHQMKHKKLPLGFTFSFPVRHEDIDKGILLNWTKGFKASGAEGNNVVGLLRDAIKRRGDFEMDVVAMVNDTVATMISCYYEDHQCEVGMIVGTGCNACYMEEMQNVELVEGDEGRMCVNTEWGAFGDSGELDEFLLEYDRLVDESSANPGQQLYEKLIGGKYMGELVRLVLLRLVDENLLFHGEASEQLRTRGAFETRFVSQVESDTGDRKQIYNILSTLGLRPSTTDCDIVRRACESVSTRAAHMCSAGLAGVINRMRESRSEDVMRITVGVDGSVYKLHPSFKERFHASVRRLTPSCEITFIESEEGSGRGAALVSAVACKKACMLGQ

[1] = Clearance in rat; format: ADME, organism-based; settings: in vivo
[2] = Half life in rat plasma; format: ADME, cell-free
Rattus norvegicus [3] = organism: Rattus norvegicus; assay: Unbound clearance in rat; format: ADME, organism-based; settings: in vivo
[4] = Octanol-buffer partition coefficient, log D of the compound at pH 7.4 after 30 mins by shake flask method; format: physicochemical
[5] = Half life at pH 6; format: physicochemical; settings: buffer
Hepatocyte = assay: Intrinsic clearance in rat hepatocytes measured per […] cells; format: ADME, cell-based
[6] = molecular target: Voltage-gated inwardly rectifying potassium channel KCNH2 (Homo sapiens, UniProt Q12809); assay: Inhibition of human ERG by electrophysiological analysis
Canis familiaris = organism: Canis familiaris; assay: Unbound clearance in dog; format: ADME, organism-based, Canis lupus familiaris; settings: in vivo
[7] = Oral bioavailability in rat; format: ADME, organism-based; settings: in vivo
[8] = Oral bioavailability in dog; format: ADME, organism-based, Canis lupus familiaris; settings: in vivo
[9] = Clearance in dog; format: ADME, organism-based, Canis lupus familiaris; settings: in vivo
[10] = Apparent permeability from apical to basolateral side in MDCK cells; format: ADME, cell-based, Canis lupus familiaris; settings: dog
[11] = Aqueous solubility in PBS buffer at pH 7.4 after 24 hrs by LC-UV analysis; format: physicochemical
[12] = Volume of distribution at steady state in dog; format: ADME, organism-based, Canis lupus familiaris; settings: in vivo, read-out: Vdss
[13] = Volume of distribution at steady state in rat; format: ADME, organism-based; settings: in vivo, read-out: Vdss
Rattus norvegicus [14] = assay: Glucose lowering activity in Zucker rat at 3 mg/kg, po after 24 hrs; format: functional, organism-based; set-up: dose 3 mg/kg

Voltage-gated inwardly rectifying potassium channel KCNH2, sequence (Q12809 whole entry): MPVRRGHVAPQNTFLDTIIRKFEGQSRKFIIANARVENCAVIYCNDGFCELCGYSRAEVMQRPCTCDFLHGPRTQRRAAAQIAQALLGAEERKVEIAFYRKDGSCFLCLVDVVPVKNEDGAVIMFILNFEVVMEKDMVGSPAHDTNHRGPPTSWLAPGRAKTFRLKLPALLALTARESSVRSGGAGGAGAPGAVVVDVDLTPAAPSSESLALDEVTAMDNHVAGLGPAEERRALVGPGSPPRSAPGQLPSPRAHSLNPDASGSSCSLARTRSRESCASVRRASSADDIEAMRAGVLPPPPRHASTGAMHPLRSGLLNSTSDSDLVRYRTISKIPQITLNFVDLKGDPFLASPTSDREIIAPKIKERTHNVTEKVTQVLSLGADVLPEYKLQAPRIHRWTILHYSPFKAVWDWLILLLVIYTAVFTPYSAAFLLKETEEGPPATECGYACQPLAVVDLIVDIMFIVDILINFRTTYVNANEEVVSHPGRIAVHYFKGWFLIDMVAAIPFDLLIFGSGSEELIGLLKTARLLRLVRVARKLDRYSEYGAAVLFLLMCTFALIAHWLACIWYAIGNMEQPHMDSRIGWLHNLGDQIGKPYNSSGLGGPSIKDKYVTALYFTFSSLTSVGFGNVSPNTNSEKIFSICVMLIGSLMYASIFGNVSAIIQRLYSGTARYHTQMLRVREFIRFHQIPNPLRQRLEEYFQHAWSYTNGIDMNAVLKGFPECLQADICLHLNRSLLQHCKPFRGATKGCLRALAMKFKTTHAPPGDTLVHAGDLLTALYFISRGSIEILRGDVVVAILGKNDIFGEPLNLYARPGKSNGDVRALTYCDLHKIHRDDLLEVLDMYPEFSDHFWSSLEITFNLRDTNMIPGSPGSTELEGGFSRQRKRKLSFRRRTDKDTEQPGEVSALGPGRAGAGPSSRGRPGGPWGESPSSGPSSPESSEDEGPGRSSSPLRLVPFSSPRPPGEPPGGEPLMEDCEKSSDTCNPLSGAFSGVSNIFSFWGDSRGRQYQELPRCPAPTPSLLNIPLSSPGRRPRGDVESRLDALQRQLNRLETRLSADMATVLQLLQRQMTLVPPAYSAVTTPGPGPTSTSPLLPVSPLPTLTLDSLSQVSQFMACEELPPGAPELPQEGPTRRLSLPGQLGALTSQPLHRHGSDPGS

| Structure (SMILES) | EC50 (Hexokinase-4; read-out: pEC50 (converted)) [nM] | clearance [1] [mL/min/kg] | half-life [2] [min] | CL free (Rattus norvegicus [3]) [mL/min/kg] | logD at 0.5 h [4] | IC50 [6] [nM] | other results |
| --- | --- | --- | --- | --- | --- | --- | --- |
| O=C(Nc1ccc(Cl)cn1)[C@H](COCCO)Oc1ncnc2c1cnn2-c1ccccc1Cl | 200 | 11 | 86 | 120 | 3.1 |  |  |
| CC(C)OC[C@H](Oc1ncnc2c1cnn2-c1ncccc1Cl)C(=O)Nc1ccc(Cl)cn1 |  | 11 | 14 | 120 |  |  | half-life [5]: > 23 days |
| Cc1ccc(NC(=O)[C@H](COC2CCC2)Oc2ncnc3c2cnn3-c2ncccc2Cl)nc1 |  |  | 10 | 1500 |  |  | CLint (Hepatocyte): 130 µL/min/1e6 cells |
| O=C(Nc1ccc(Cl)cn1)[C@H](COCCO)Oc1ncnc2c1cnn2-c1ncccc1Cl | 501 | 15 | 31 | 70 | 2.1 | 50100 |  |
| C[C@H](CO)OC[C@H](Oc1ncnc2c1cnn2-c1ncccc1Cl)C(=O)Nc1ccc(Cl)cn1 | 398 | 50 | 19 | 190 | 2.3 |  | half-life [5]: > 23 days |
| O=C(Nc1ccc(F)cn1)[C@H](COCCO)Oc1ncnc2c1cnn2-c1c(F)cccc1Cl | 200 | 15 |  | 110 | 2.5 | 31600 |  |
| N#Cc1ccc(NC(=O)[C@H](COCCO)Oc2ncnc3c2cnn3-c2ncccc2Cl)nc1 | 1580 | 13 | 115 | 28 |  |  |  |
| Cc1ccc(NC(=O)[C@H](CCO)Oc2ncnc3c2cnn3-c2ncccc2Cl)nc1 | 200 | 11 | > 300 |  | 1.8 |  |  |
| N#Cc1ccc(NC(=O)[C@H](CN2CC(O)C2)Oc2ncnc3c2cnn3-c2ccccc2Cl)nc1 | 200 | 30 |  | 110 | 2.1 | 10000 |  |
| COC[C@H](Oc1ncnc2c1cnn2-c1ncccc1Cl)C(=O)Nc1ccc(C)cn1 |  |  | > 300 |  |  |  | CLint (Hepatocyte): < 2 µL/min/1e6 cells |
| C[C@@H](CO)OC[C@H](Oc1ncnc2c1cnn2-c1ncccc1Cl)C(=O)Nc1ccc(F)cn1 | 2510 | 38 | 1 | 76 | 1.7 | > 100000 |  |
| O=C(Nc1ccc(F)cn1)[C@H](CN1CC(O)C1)Oc1ncnc2c1cnn2-c1ncccc1Cl | 316 | 21 | 62 | 31 | 1.3 | > 100000 |  |
| O=C(Nc1ccc(F)cn1)[C@H](COCCO)Oc1ncnc2c1cnn2-c1ccccc1Cl | 631 | 45 |  | 220 | 2.4 | 39800 |  |
| CC(C)OC[C@H](Oc1ncnc2c1cnn2-c1ncccc1Cl)C(=O)Nc1ccc(C#N)cn1 |  | 21 | 22 | 81 |  |  | half-life [5]: > 23 days |
| Cc1ccc(NC(=O)[C@H](COC(C)C)Oc2ncnc3c2cnn3-c2ncccc2Cl)nc1 |  |  | 17 | 390 |  |  | CLint (Hepatocyte): 66 µL/min/1e6 cells |
| C[C@@H](CO)OC[C@H](Oc1ncnc2c1cnn2-c1ncccc1Cl)C(=O)Nc1ccc(Cl)cn1 | 3160 |  | 12 |  | 2.4 |  |  |
| N#Cc1ccc(NC(=O)[C@H](CN2CC(O)C2)Oc2ncnc3c2cnn3-c2c(Cl)cccc2C#N)nc1 | 501 |  |  |  | 1.9 | 7940 |  |
| CC(C)OC[C@H](Oc1ncnc2c1cnn2-c1ccccc1Cl)C(=O)Nc1ccc(Cl)cn1 |  | 33 | 19 | 1500 | > 4.3 | 15800 |  |

| Structure (SMILES) | EC50 (Hexokinase-4; read-out: pEC50 (converted)) [nM] | clearance [1] [mL/min/kg] | half-life [2] [min] | CL free (Rattus norvegicus [3]) [mL/min/kg] | logD at 0.5 h [4] | IC50 [6] [nM] | other results |
| --- | --- | --- | --- | --- | --- | --- | --- |
| N#Cc1cccc(Cl)c1-n1ncc2c(O[C@@H](CN3CC(O)C3)C(=O)Nc3ccc(F)cn3)ncnc21 | 200 | 32 |  | 260 | 2 |  |  |
| Cc1cnc(NC(=O)[C@H](CN2CC(O)C2)Oc2ncnc3c2cnn3-c2c(Cl)cccc2Cl)cn1 |  | 225 |  | 74 | 2.3 | 62000 | EC50 (Hexokinase-4; read-out: EC50): 96 nM; CL free (Canis familiaris): 60 mL/min/kg; bioavailability [7]: 38%; bioavailability [8]: 87%; clearance [9]: 18 mL/min/kg; Papp A→B [10]: 3.5 ×10⁻⁶ cm/s; solubility at 24 h [11]: > 750 µM; Vd [12]: 1.1 L/kg; Vd [13]: 1.2 L/kg |
| N#Cc1cccc(Cl)c1-n1ncc2c(O[C@@H](COCCO)C(=O)Nc3ccc(F)cn3)ncnc21 | 501 | 19 |  | 140 | 2 | 63100 |  |
| O=C(Nc1ccccn1)[C@H](CN1CC(O)C1)Oc1ncnc2c1cnn2-c1c(F)cccc1Cl |  | 81 |  | 250 | 2.3 |  |  |
| O=C(Nc1ccc(F)cn1)[C@H](CN1CC(O)C1)Oc1ncnc2c1cnn2-c1c(Cl)cccc1Cl |  | 42 |  | 320 | 2.7 |  | EC50 (Hexokinase-4; read-out: EC50): 49 nM; Activity (Rattus norvegicus [14]): Active; CL free (Canis familiaris): 210 mL/min/kg; bioavailability [7]: 28%; bioavailability [8]: 32%; clearance [9]: 30 mL/min/kg; Papp A→B [10]: 7.3 ×10⁻⁶ cm/s; solubility at 24 h [11]: 80 µM (≈ 41.5 µg/mL); Vd [12]: 1.1 L/kg; Vd [13]: 1.7 L/kg |
| O=C(Nc1ccc(Cl)cn1)[C@H](CN1CC(O)C1)Oc1ncnc2c1cnn2-c1ccccc1Cl | 63.1 | 40 | 24 | 310 | 3.1 | 10000 |  |
| O=C(Nc1ccc(Cl)cn1)[C@H](CN1CC(O)C1)Oc1ncnc2c1cnn2-c1ncccc1Cl | 316 | 38 | 45 | 140 | 2 | 50100 |  |
| O=C(Nc1ccc(F)cn1)[C@H](COCCO)Oc1ncnc2c1cnn2-c1c(Cl)cccc1Cl | 126 | 15 |  | 120 | 2.7 | 20000 |  |
| O=C(Nc1ccccn1)[C@H](CN1CC(O)C1)Oc1ncnc2c1cnn2-c1ccccc1Cl | 200 | 170 |  | 420 | 2 | > 100000 |  |
| CCOC[C@H](Oc1ncnc2c1cnn2-c1ncccc1Cl)C(=O)Nc1ccc(C)cn1 |  |  | 37 | 340 |  |  | CLint (Hepatocyte): 12 µL/min/1e6 cells |
| C[C@H](CO)OC[C@H](Oc1ncnc2c1cnn2-c1ncccc1Cl)C(=O)Nc1ccc(F)cn1 | 794 | 43 | 16 | 98 | 1.7 | > 100000 | half-life [5]: > 23 days |
| C[C@H](CO)OC[C@H](Oc1ncnc2c1cnn2-c1ncccc1Cl)C(=O)Nc1ccc(C#N)cn1 |  | 14 | 106 | 29 | 1.5 |  | half-life [5]: > 23 days |
| O=C(Nc1ccc(F)cn1)[C@H](CN1CC(O)C1)Oc1ncnc2c1cnn2-c1c(F)cccc1Cl | 50.1 | 38 |  | 190 | 2.3 | 25100 |  |
| C[C@@H](CO)OC[C@H](Oc1ncnc2c1cnn2-c1ncccc1Cl)C(=O)Nc1ccc(C#N)cn1 | > 100000 |  | 115 |  | 1.5 |  |  |
| CC(C)OC[C@H](Oc1ncnc2c1cnn2-c1ncccc1Cl)C(=O)Nc1ccc(F)cn1 |  | 130 | 7 | 600 |  |  | half-life [5]: > 23 days |
| Cc1cnc(NC(=O)[C@H](CO[C@H](C)CO)Oc2ncnc3c2cnn3-c2c(Cl)cccc2C#N)cn1 |  | 18 |  | 39 | 1.9 | > 100000 | EC50 (Hexokinase-4; read-out: EC50): 78 nM; CL free (Canis familiaris): 49 mL/min/kg; bioavailability [7]: 100%; bioavailability [8]: 43%; clearance [9]: 18 mL/min/kg; Papp A→B [10]: 7.8 ×10⁻⁶ cm/s; solubility at 24 h [11]: > 50 µM; Vd [12]: 0.9 L/kg; Vd [13]: 1.5 L/kg |
| N#Cc1ccc(NC(=O)[C@H](CN2CC(O)C2)Oc2ncnc3c2cnn3-c2c(Cl)cccc2Cl)nc1 | 251 | 64 |  | 240 | 2.6 |  |  |
| O=C(Nc1ccc(F)cn1)[C@H](CN1CC(O)C1)Oc1ncnc2c1cnn2-c1ccccc1Cl |  | 31 |  | 90 | 2.3 | 36000 | EC50 (Hexokinase-4; read-out: EC50): 78 nM; Activity (Rattus norvegicus [14]): Active; CL free (Canis familiaris): 170 mL/min/kg; bioavailability [7]: 75%; bioavailability [8]: 12%; clearance [9]: 51 mL/min/kg; Papp A→B [10]: 9.8 ×10⁻⁶ cm/s; solubility at 24 h [11]: > 750 µM; Vd [12]: 1.5 L/kg; Vd [13]: 1.5 L/kg |
